The compounds below were run against Fasciola hepatica TIM (FhTIM) (Fasciola hepatica, UniProt S4UI50) (assay: Inhibition of recombinant FhTIM, coupled enzyme assay). Details: not given.
Type: biochemical
Method: Expression and purification of proteins: FhTIM, RabbitTIM and HsTIM were expressed in Escherichia coli and purified as described in the literature[31],[37]. […] Before use, extensive dialysis against 100 mM triethanolamine/10 mM EDTA (pH 7.4) was performed. […] Enzymatic activity was determined following the conversion of glyceraldehydes-3-phosphate into dihydroxyacetone phosphate in a coupled enzyme assay. The decrease in absorbance at 340 nm was followed in a multiplate reader VarioskanTM Flash Multimode Reader (Thermo ScientificTM, Waltham, MA, USA) at 38 °C. The reaction mixture (1 mL, pH 7.4) contained 100 mM triethanolamine, 10 mM EDTA, 0.2 mM NADH, 1 mM glyceraldehydes-3-phosphate and 0.9 units of α-glycerol phosphate dehydrogenase. The reaction was initiated by the addition of 5 ng/mL of the TIM of interest. For the inhibition studies, TIM was incubated at a concentration of 5 mg/mL in a buffer containing 100 mM triethanolamine, 10 mM EDTA, pH 7.4 and 10% of DMSO at 37 °C for 1 h. The mixture also contained the compounds, dissolved in DMSO, at the indicated concentrations. After 1 h, 10 µL were withdrawn and added to a final volume of 100 µL of the reaction mixture for the activity assay. The inhibition assay was performed in a 96-well microplate. […] The experiments were performed in triplicate in two independent experiments.

Chain of Fasciola hepatica TIM (FhTIM) (S4UI50 entry or part of it): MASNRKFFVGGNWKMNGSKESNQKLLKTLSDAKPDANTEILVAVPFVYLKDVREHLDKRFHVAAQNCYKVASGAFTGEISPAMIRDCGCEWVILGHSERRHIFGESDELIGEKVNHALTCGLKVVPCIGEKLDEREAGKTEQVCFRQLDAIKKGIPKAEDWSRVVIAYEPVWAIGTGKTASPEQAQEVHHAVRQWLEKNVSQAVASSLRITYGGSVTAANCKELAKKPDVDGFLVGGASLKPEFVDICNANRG

| SMILES | FhTIM inhibition in words |
| --- | --- |
| Cc1ccc(-c2nsc(=O)[nH]2)cc1 [Compound 191] | non-inhibitor |

Same assay, conditions: Table 1S, screening of 340 compounds in FhTIM; table head prints no unit, µM per b8/b9; read-out: IC50

| SMILES | IC50 [µM] |
| --- | --- |
| Cc1csc(=NN=CC=Cc2ccco2)n1-c1ccccc1 [Compound 1131] | > 100 |
| O=[N+]([O-])c1c(Cl)cc2c(no[n+]2[O-])c1N1CCN(c2c([N+](=O)[O-])c(Cl)cc3c2no[n+]3[O-])CC1 [Compound 704] | > 100 |
| C=CCn1c(C(=O)CN2CCN(Cc3ccccc3)CC2)csc1=NN=CC=Cc1ccco1 [Compound 1114] | > 100 |
| C=CCNC(=S)NN=CC=Cc1ccc(C)o1 [Compound 263] | > 100 |
| C=CCn1c(-c2ccccc2)csc1=NN=Cc1ccco1 [Compound 1109] | > 100 |
| N#Cc1c2ccccc2[n+]([O-])n1-c1ccc(Cl)cc1 [Compound 480] | > 100 |
| O=S(=O)(NCc1ccccc1)NCc1ccccc1 [Compound 119] | > 100 |
| O=C(C(O)c1ccccc1)C(O)c1ccccc1 (stereo not shown) [Compound 1083] | > 100 |
| O=c1cc(O)n(Cc2ccccc2)c(=S)n1Cc1ccccc1 [Compound 1088] | > 100 |
| C=CCN1C(=O)CSC1=NN=CC=Cc1ccco1 [Compound 264] | > 100 |
| O=C(/C=C/c1ccco1)c1ccccc1O [Compound 881] | 100 |
| [O-][n+]1onc2ccc(C=Cc3ccc4nonc4c3)cc21 [Compound 12] | > 100 |
| CCCCNCCCCCn1nc(OC)c2cc([N+](=O)[O-])ccc21 [Compound 643] | > 100 |
| CC(C)OC(CC[P+](c1ccccc1)(c1ccccc1)c1ccccc1)OC(C)C [Compound 497] | > 100 |
| CC(=O)Nc1ccc(C#N)cc1 [Compound 1104] | > 100 |
| C(=Cc1ccco1)C=NN=c1scc(-c2ccccc2)n1-c1ccccc1 [Compound 1132] | > 100 |
| COc1nn(CCCCCN(C)C)c2ccc([N+](=O)[O-])cc12 [Compound 469] | > 100 |
| O=S(=O)(NC1CCCCC1)NC1CCCCC1 [Compound 118] | > 100 |
| O=C1C(=CC=Cc2ccccc2)CCCC1=CC=Cc1ccccc1 [Compound 800] | > 100 |
| Cc1c(CNc2cccc3ccccc23)no[n+]1[O-] [Compound 172] | > 100 |
| C=CCn1c(C(=O)N2CCN(Cc3ccccc3)CC2)csc1=NN=CC=Cc1ccco1 [Compound 1117] | > 100 |
| NC1=NS(=O)(=O)N=C(N)C1N [Compound 723] | > 100 |

| SMILES | IC50 [µM] |
| --- | --- |
| Cc1nnc[n+]([O-])c1C=Cc1ccc(N(C)C)cc1 [Compound 641] | > 100 |
| CC(=O)Nc1ccc(C=C2CN(C)CC(=Cc3ccc(NC(C)=O)cc3)C2=O)cc1 [Compound 1281] | > 100 |
| CN(CC=Cc1ccccc1)CCCCCn1nc(OCc2ccccc2)c2cc([N+](=O)[O-])ccc21 [Compound 507] | > 100 |
| CN1CC(=Cc2ccc(S(=O)(=O)O)o2)C(=O)C(=Cc2ccc(S(=O)(=O)O)o2)C1 [Compound 1286] | > 100 |
| Cc1c(CNc2ccc3ccccc3c2)no[n+]1[O-] [Compound 173] | 50 to 100 |
| CCCCN1C(=O)C(=Cc2ccc([N+](=O)[O-])cc2)C(=O)N(CCCC)S1(=O)=O [Compound 1165] | > 100 |
| CC1(C)[N+]([O-])=c2ccc(C3OCCO3)cc2=[N+]1[O-] [Compound 105] | > 100 |
| ON=Cc1ccc(Br)cc1 [Compound 1107] | > 100 |
| C=CCn1c(-c2ccc(Br)cc2)csc1=NN=CC=Cc1ccco1 [Compound 306] | 50 to 100 |
| O=[N+]([O-])c1ccc2c(c1)c(OCc1ccccc1)nn2CCCCCBr [Compound 518] | 100 |
| CCCCOC(=O)c1nc2ccc([N+](=O)[O-])cc2n1O [Compound 550] | > 100 |
| C=CCNC(=S)NN=Cc1ccc2ccccc2c1 [Compound 296] | > 100 |
| CCOC(=O)c1n(Cc2ccc(N(C)C)cc2)c2ccc([N+](=O)[O-])cc2[n+]1[O-] [Compound 553] | > 100 |
| O=C1CSC(=NN=Cc2cccs2)N1c1ccccc1 [Compound 293] | > 100 |
| C=CCn1c(-c2ccc(Br)cc2)csc1=NN=C(C)C1CCC2C3CC=C4CC(O)CCC4(C)C3CCC12C (stereo not shown) [Compound 1272] | > 100 |
| C=CCN1C(=O)CSC1=NN=CC=Cc1cccs1 [Compound 1138] | > 100 |
| C=CCN(C(C)=O)C1=NNC(c2cccs2)S1 (stereo not shown) [Compound 286] | > 100 |
| O=[N+]([O-])c1cc(CI)ccc1F [Compound 769] | 100 |
| CCCCNS(=O)(=O)NCCCC [Compound 123] | > 100 |
| COC(=O)NN=Cc1no[n+]([O-])c1C [Compound 174] | > 100 |
| O=[N+]([O-])c1ccc2c(c1)c(O)nn2CCOCCN1CCSCC1 [Compound 642] | > 100 |
| C=CCn1c(C(=O)NN2CCN(CC=Cc3ccccc3)CC2)csc1=NN=CC=Cc1ccco1 [Compound 1100] | > 100 |

| SMILES | IC50 [µM] |
| --- | --- |
| C=CCn1c(-c2ccc([N+](=O)[O-])cc2)csc1=NN=CC=Cc1ccc([N+](=O)[O-])s1 [Compound 131] | > 100 |
| O=C1C(=Cc2cccs2)CCCC1=Cc1cccs1 [Compound 807] | > 100 |
| C=CCn1c(C)csc1=NN=Cc1ccc(S(=O)(=O)O)o1 [Compound 1130] | > 100 |
| NC1=NS(=O)(=O)N=C(N)C1 [Compound 126] | 100 |
| Cc1csc(=NN=Cc2cccs2)n1-c1ccccc1 [Compound 1103] | > 100 |
| O=S(=O)(NCCc1ccccc1)NCCc1ccccc1 [Compound 120] | > 100 |
| O=S(=O)(O)c1ccc(C=NN=c2scc(-c3csc(=NN=Cc4ccc(S(=O)(=O)O)o4)n3-c3ccccc3)n2-c2ccccc2)o1 [Compound 781] | > 100 |
| C=CCn1c(-c2ccc(Cl)cc2)csc1=NN=CC=Cc1ccc(C)o1 [Compound 872] | > 100 |
| C=CCn1c(C)csc1=NN=CC=Cc1ccc([N+](=O)[O-])s1 [Compound 259] | > 100 |
| Cc1ccc(-c2nsc(=O)[nH]2)cc1 [Compound 191] | > 100 |
| C=CCn1c(C(=O)O)csc1=NN=C/C=C/c1ccc(C)o1 [Compound 789] | > 100 |
| CN1C/C(=C\C=C\c2ccccc2)C(=O)/C(=C/C=C/c2ccccc2)C1 [Compound 1284] | 50 to 100 |
| C=CCn1c(C)csc1=NN=CC=Cc1ccccc1 [Compound 1135] | > 100 |
| Cc1ccc(-c2cc(C(F)(F)F)nn2-c2ccc(S(N)(=O)=O)cc2)cc1 [Compound 1121] | > 100 |
| O=C(C=Cc1cccs1)C=Cc1cccs1 [Compound 796] | > 100 |
| N#Cc1c(-c2ccccc2)no[n+]1[O-] [Compound 650] | > 100 |
| Cc1ccc2c(c1)nc(-c1ccc(N(C)C)cc1)n2CCc1ccccc1 [Compound 696] | > 100 |
| [O-][n+]1onc(-c2ccccc2)c1CNc1cccc2ccccc12 [Compound 169] | > 100 |
| Cc1c(C=NNC(N)=O)no[n+]1[O-] [Compound 159] | > 100 |
| O=C1C(=Cc2ccccc2)CCCC1=Cc1ccccc1 [Compound 799] | 100 |
| Nc1ccc([N+](=O)[O-])cc1 [Compound 1196] | > 100 |
| C=CCNC(=S)NN=Cc1ccc2c(c1)OCO2 [Compound 280] | > 100 |

| SMILES | IC50 [µM] |
| --- | --- |
| CCOC(=O)On1c(C(=O)OCC)nc2ccc([N+](=O)[O-])cc21 [Compound 660] | > 100 |
| C=CCN1C(=O)CSC1=NN=Cc1cccs1 [Compound 273] | > 100 |
| S=C(NN=CC=CC=Cc1cccs1)Nc1ccccc1 [Compound 310] | 50 to 100 |
| CCCCNC(=O)NN=Cc1no[n+]([O-])c1C [Compound 175] | > 100 |
| Oc1ccccc1CN1N=Cc2ccccc2OB1F [Compound 1198] | > 100 |
| C=CCNC(=S)NN=Cc1ccc(O)cc1 [Compound 291] | > 100 |
| COCCNC(=O)/C=C/c1ccc([N+](=O)[O-])o1 [Compound 60] | > 100 |
| O=S(=O)(O)c1ccc(C=NN=c2scc(-c3csc(=NN=Cc4ccccc4)n3-c3ccccc3)n2-c2ccccc2)o1 [Compound 784] | > 100 |
| CC(=NN=c1[nH]c(C(=O)O)cs1)C1CCC2C3CC=C4CC(O)CCC4(C)C3CCC12C (stereo not shown) [Compound 1258] | > 100 |
| O=C(O)c1ccc(C=CCN2C(=O)c3ccccc3C2=O)cc1 (mixture of isomers) [Compound 617] | > 100 |
| C=CCNC(=S)NN=Cc1ccc([N+](=O)[O-])s1 [Compound 136] | > 100 |
| C=CCN(C(C)=O)C1=NN(C(C)=O)C(C=Cc2ccco2)S1 (stereo not shown) [Compound 285] | > 100 |
| COc1nn(CCOCCN(C)CC=Cc2ccccc2)c2ccc([N+](=O)[O-])cc12 [Compound 504] | > 100 |
| NC1=NC(=O)N=C(N)C1=Cc1ccco1 [Compound 575] | 50 to 100 |
| O=C1C(=Cc2ccco2)CCCC1=Cc1ccco1 [Compound 808] | > 100 |
| O=C(NN=Cc1ccccc1O)c1ccccc1Cl [Compound 1250] | > 100 |
| Cc1ccc2c(c1)=[N+]([O-])C(C)(C)[N+]=2[O-] [Compound 109] | > 100 |
| O=C(CBr)c1csc(=NN=Cc2ccccc2)n1-c1ccccc1 [Compound 775] | > 100 |
| Clc1ccc(-c2csc(N=CC=Cc3ccco3)n2)cc1 [Compound 910] | > 100 |
| COc1ccc(C=Cc2cnnc[n+]2[O-])cc1 [Compound 365] | > 100 |

Same assay, conditions: recombinant FhTIM, 1 h incubation with compound at 37 °C; read-out: IC50

| SMILES | IC50 [µM] |
| --- | --- |
| S=C(NN=CC=CC=Cc1cccs1)Nc1ccccc1 [Compound 310] | 79 ± 7 |

From article PMC7018972, “Novel and selective inactivators of Triosephosphate isomerase with anti-trematode activity” (Scientific Reports, 2020)
